Data on one compound can be found in ChEMBL document CHEMBL1143116, “Synthesis and biological evaluation of 5-(pyridin-2-yl)thiazoles as transforming growth factor-beta type1 receptor kinase inhibitors” (Bioorg Med Chem Lett, 2008).

The test addresses T1, TGF-beta receptor type-1 (Homo sapiens) (UniProt P36897).
T1 sequence (whole entry): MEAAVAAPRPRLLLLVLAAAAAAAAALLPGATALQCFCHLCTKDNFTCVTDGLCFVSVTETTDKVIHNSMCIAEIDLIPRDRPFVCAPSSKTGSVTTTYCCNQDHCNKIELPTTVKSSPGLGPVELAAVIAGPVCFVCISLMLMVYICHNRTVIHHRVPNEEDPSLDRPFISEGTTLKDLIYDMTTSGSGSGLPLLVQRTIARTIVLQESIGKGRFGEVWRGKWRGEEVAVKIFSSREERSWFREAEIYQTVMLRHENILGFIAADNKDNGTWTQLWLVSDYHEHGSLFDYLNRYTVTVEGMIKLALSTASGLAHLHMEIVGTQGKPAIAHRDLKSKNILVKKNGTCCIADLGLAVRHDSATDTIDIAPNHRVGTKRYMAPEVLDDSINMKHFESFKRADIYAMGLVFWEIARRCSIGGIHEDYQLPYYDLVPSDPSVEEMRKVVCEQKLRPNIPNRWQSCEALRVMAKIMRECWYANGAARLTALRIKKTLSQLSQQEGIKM
The experiment in a line: Inhibition of TGF-beta-induced ALK5 in human HaCaT cells assessed as p3TP-luciferase activity. Format: cell-based.

Each structure is given as a SMILES string.

`Cc1cccc(-c2sc(NCc3cccc(C(N)=O)c3)nc2-c2ccc3nccnc3c2)n1`: the Activity entry is “Dose-dependent effect”.
